# In patent publication US10736897B2, “Compounds and methods of use thereof for treatment of cancer” (Araxes Pharma LLC, priority 2017, dated 2020):
# Target: T1, KRAS G12C 1-169, his-tagged protein, GDP-loaded (Homo sapiens, UniProt P01116, G12C)
# T1 construct: KRAS G12C 1-169, his-tagged protein, GDP-loaded; His tag
# Assay: Biochemical assay: covalent modification of KRAS G12C measured by mass spectrometry (RapidFire/TOF or Q-Exactive)
# Type: binding
# Conditions: Modification Activity; modification percentage from deconvoluted MS peak intensities; compound concentration and incubation time for Table 2 not stated
# Experimental: Test compounds are prepared as 10 mM stock solutions in DMSO (Fisher cat # BP-231-100). KRAS G12C 1-169, his-tagged protein, GDP-loaded is diluted to 2 μM or 0.5 μM in buffer (20 mM Hepes, 150 mM NaCl, 1 mM MgCl2). Compounds are tested for activity as follows:
# Compounds are diluted to 50× final test concentration in DMSO in 96-well storage plates. Compound stock solutions are vortexed before use and observed carefully for any sign of precipitation. Dilutions are as follow: • For 100 μM final compound concentration, compounds are diluted to 5000 μM (5 μL 10 mM compound stock+5 μL DMSO and mixed well by pipetting. • For 30 μM final compound concentration, compounds are diluted to 1500 μM (3 μL 10 mM compound stock+17 μL DMSO) and mixed well by pipetting. • For 10 μM final compound concentration, compounds are diluted to 500 μM (2 μL 10 mM compound stock+38 μL DMSO) and mixed well by pipetting. 49 μL of the stock protein solution is added to each well of a 96-well PCR plate (Fisher cat #1423027). 1 μl of the diluted 50× compounds are added to appropriate wells in the PCR plate using 12-channel pipettor. Reactions are mixed carefully and thoroughly by pipetting up/down with a 200 μL multi-channel pipettor. The plate is sealed well with aluminum plate seal, and stored in drawer at room temperature for 10 minutes, 30 minutes, 2 hours or 24 hours. 5 μL of 2% formic acid (Fisher cat # A117) in de-ionized H2O is then added to each well followed by mixing with a pipette. The plate is then resealed with aluminum seal and stored on dry ice until analyzed as described below.
# The above described assays are analyzed by mass spectrometry according to one of the following two procedures:
# The MS instrument is set to positive polarity, 2 GHz resolution, and low mass (1700) mode and allowed to equilibrate for 30 minutes. The instrument is then calibrated, switched to acquisition mode and the appropriate method loaded.
# After another 30 minute equilibration time, a blank batch (i.e., buffer) is run to ensure equipment is operating properly. The samples are thawed at 37° C. for 10 minutes, briefly centrifuged, and transfer to the bench top. Wells A1 and H12 are spiked with 1 μL 500 μM internal standard peptide, and the plates centrifuged at 2000×g for 5 minutes. The method is then run and masses of each individual well recorded.
# The masses (for which integration data is desired) for each well are pasted into the platemap and exported from the analysis. Masses for the internal standards are exported as well. The data at 50 ppm is extracted for the +19 charge state, and identity of well A1 is assigned using the internal standard spike and integrated. Peak data is exported as a TOF list and the above steps are repeated individually, for the +20, 21, 22, 23, 24, and 25 charge states.
# The masses and peak intensities of KRAS G12C protein species are measured using a Dionex RSLCnano system (Thermo Scientific) connected to a Q Exactive Plus mass spectrometer (Thermo Scientific).
# […] of sample is each loaded onto a Aeris™ 3.6 μm WIDEPORE C4 200 Å, LC Column 50×2.1 mm column maintained at 40° C. at a flow rate of 600 μL/min with […] (0.1% formic acid in acetonitrile). The liquid chromatography conditions are 20% solvent B for 1 minute, 20% to 60% solvent B for 1.5 minutes, 60% to 90% solvent for 0.5 minute, 90% solvent B for 0.2 minute, 90% to 20% solvent B for 0.2 minute, and then equilibrated for 1.6 minute before the following sample injection. The flow rate is maintained at 600 μL/min throughout the sample analysis.
# The mass spectrometer is operated in profile mode at a resolution of 17500, 5 microscans, using 50 msec max injection time and an AGC target of 1×10^6, and a full mass range from 800-1850 m/z is recorded. The HCD trapping gas is optimized for maximum sensitivity for intact proteins. […]
row,SMILES,Binding %
1,"C=CC(=O)N1CCN(c2c(C#N)cnc3c(F)c(-c4c(C)ccc5cnn(C)c45)c(Cl)cc23)C[C@H]1C [Compound 24, 4-((R)-4-acryloyl-3-methylpiperazin-1-yl)-6-chloro-7-(1,6-dimethyl-1H-indazol-7-yl)-8-fluoroquinoline-3-carbonitrile]",+++ (+++ indicates binding activity greater than 85%)
2,"C=CC(=O)N1CCN(c2cc(C(F)(F)F)nc3c(F)c(-c4c(C)ccc5[nH]nc(C)c45)c(Cl)cc23)CC1 [Compound 25, 1-(4-(6-chloro-7-(3,5-dimethyl-1H-indazol-4-yl)-8-fluoro-2-(trifluoromethyl)quino-lin-4-yl)piperazin-1-yl)prop-2-en-1-one]",+ (+ indicates binding activity greater than 0% and up to 50%)
3,"C=CC(=O)N1CCN(c2c(C#N)cnc3c(F)c(-c4c(C)ccc5cnn(C6CC6)c45)c(Cl)cc23)C[C@H]1C [Compound 26, 4-((R)-4-acryloyl-3-methylpiperazin-1-yl)-6-chloro-7-(1-cyclopropyl-6-methyl-1H-indazol-7-yl)-8-fluoroquinoline-3-carbonitrile]",+++ (+++ indicates binding activity greater than 85%)
4,"C=CC(=O)N1CCN(c2c(C#N)c(OCCCN(C)C)nc3c(F)c(-c4c(C)ccc5cnn(C)c45)c(Cl)cc23)CC1 [Compound 27, 4-(4-acryloylpiperazin-1-yl)-6-chloro-7-(1,6-dimethyl-1H-indazol-7-yl)-2-(3-(dimethylamino)pro-poxy)-8-fluoroquinoline-3-carbonitrile]",+++ (+++ indicates binding activity greater than 85%)
5,"C=CC(=O)N1CCN(c2cc(C#N)nc3c(F)c(-c4c(C)ccc5cnn(C)c45)c(Cl)cc23)CC1 [Compound 28, 4-(4-acryloylpiperazin-1-yl)-6-chloro-7-(1,6-dimethyl-1H-indazol-7-yl)-8-fluoroquinoline-2-carbonitrile]",+++ (+++ indicates binding activity greater than 85%)
6,"C=CC(=O)N1CCN(c2cc(C#N)nc3c(F)c(-c4c(C)ccc5[nH]nc(C)c45)c(Cl)cc23)CC1 [Compound 29, 4-(4-acryloylpiperazin-1-yl)-6-chloro-7-(3,5-dimethyl-1H-indazol-4-yl)-8-fluoroquinoline-2-carbontrile]",++ (++ indicates binding activity from 50 to 85%)
7,"C=CC(=O)N1CCN(c2c(C#N)cnc3c(F)c(-c4c(C)ccc5[nH]nc(C)c45)c(Cl)cc23)CC1CC#N (centres unmarked) [Compound 30, 4-(4-acryloyl-3-(cyanomethyl)piperazin-1-yl)-6-chloro-7-(3,5-dimethyl-1H-indazol-4-yl)-8-fluoroquinoline-3-carbonitrile]",+++ (+++ indicates binding activity greater than 85%)
8,"C=CC(=O)N1CCN(c2ncnc3c(F)c(-c4c(C)ccc5[nH]nc(C)c45)c(Cl)cc23)CC1CC#N (centres unmarked) [Compound 31, 2-(1-acryloyl-4-(6-chloro-7-(3,5-dimethyl-1H-indazol-4-yl)-8-fluoroquinazolin-4-yl)piperazin-2-yl)acetonitrile]",+++ (+++ indicates binding activity greater than 85%)
